Patent US8114862B2, “TGR5 modulators and methods of use thereof” (Intercept Pharmaceuticals, Inc., priority 2008, dated 2012)
Read-outs that look alike come from different tables or passages of the source. Marks after values point to notes of the source that are not given here. Values belong to the compound of their own block, whether it stands above or below them.

What was measured:
in vitro [1] = settings: human, s9
FXR = molecular target: T1, FXR (Homo sapiens, UniProt Q96RI1); experiment: Alphascreen coactivator recruitment assay; assay type: biochemical; design: 10 nM of purified GST-tagged FXR-LBD protein; settings: Table 8
T1 sequence (Q96RI1 262-486 limits assumed): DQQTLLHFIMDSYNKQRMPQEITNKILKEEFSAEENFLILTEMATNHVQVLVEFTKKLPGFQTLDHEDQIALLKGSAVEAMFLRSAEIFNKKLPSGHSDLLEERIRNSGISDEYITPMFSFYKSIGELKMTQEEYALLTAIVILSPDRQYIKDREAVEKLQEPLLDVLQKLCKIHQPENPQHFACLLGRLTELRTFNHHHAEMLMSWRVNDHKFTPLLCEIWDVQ

LXRα = molecular target: T2, LXRα (Homo sapiens, UniProt Q13133); experiment: LXR coactivator recruitment (alphascreen); assay type: biochemical
T2 sequence (Q13133 1-447): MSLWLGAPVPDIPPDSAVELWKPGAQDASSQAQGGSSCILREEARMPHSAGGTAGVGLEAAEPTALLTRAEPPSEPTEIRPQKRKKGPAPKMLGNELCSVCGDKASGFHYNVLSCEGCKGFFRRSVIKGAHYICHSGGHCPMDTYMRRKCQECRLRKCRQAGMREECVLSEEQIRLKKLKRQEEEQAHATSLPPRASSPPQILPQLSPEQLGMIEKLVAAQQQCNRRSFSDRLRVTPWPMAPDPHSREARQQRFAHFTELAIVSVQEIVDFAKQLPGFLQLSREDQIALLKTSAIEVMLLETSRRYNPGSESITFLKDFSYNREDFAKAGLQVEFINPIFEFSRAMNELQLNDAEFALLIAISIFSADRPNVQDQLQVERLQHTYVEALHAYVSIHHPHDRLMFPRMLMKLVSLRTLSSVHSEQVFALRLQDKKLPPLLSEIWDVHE

diet-induced obese mice = settings: 0.5% w/w in diet; cited from earlier work
[2] = Choleretic effect (bile flow) in bile fistula rat, id and iv infusion; assay type: in vivo; settings: for SV0: maximum bile secretion rate: 1 (μmol/min)/kg bw over 1 h
CAR = molecular target: T3, CAR (Homo sapiens, UniProt Q14994); experiment: CAR coactivator recruitment (Lanthascreen); assay type: biochemical; settings: for EC50: read-out: CAR Activation EC50
T3 construct: purchased Invitrogen
T3 sequence (Q14994 109-352 limits assumed): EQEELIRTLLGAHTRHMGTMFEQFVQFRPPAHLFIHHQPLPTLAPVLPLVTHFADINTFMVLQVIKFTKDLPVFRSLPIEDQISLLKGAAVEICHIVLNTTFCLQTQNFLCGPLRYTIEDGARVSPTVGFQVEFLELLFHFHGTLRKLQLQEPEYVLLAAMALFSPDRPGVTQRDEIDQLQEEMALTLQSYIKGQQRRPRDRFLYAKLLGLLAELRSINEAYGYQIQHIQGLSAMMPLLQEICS
Experimental: CAR: Coactivator Recruitment (Lanthascreen)
Lanthascreen assay (Invitrogen) was used for nulear receptor selectivity assay. The kit uses a terbium-labeled anti-GST antibody, a fluorescein-labeled coactivator peptide, and a NR ligand-binding domain that is tagged with glutathione-S-transferase (GST) in a homogenous mix-and-read assay format. […] Following 1 hour incubation in the dark, TR-FRET measurements were made in the Envision. […] The data was analyzed using GraphPad Prism using the sigmoidal curve equation with variable slope to obtain EC50 values.

intestinal bacteria = experiment: Metabolic stability in human stool culture (7α-dehydroxylation); assay type: in vitro ADME
Experimental: Homogenized fresh human stools (500 mg) were transferred into sterile vials to which 5 mL of sterilized chopped meat-glucose medium (Scott Lab., Fiskville, R.I.) was added. BA was then added at a final concentration of 0.05 mM. […] The samples were centrifuged at 3500 rpm for 10 min; from the supernatant the BA were isolated by C-18 solid-phase extraction and analyzed by TLC and HPLC-ES-MS/MS.
Thin-layer chromatography (TLC), utilizing silica gel 0.25 mm thickness plates (Merck, Darmstat, Germany), was employed as the first screening test. The solvent system used for the separation of conjugated BA was composed of propionic acid/isoamyl acetate/water/N-propanol (3:4:1:2, v/v/v/v; solvent I), and that of the unconjugated BA was acetic acid/carbon tetrachloride/isopropyl ether/isoamyl acetate/water/N-propanol/benzene (1:4:6:8:2:2, v/v/v/v/v/v; solvent II).

[3] = Critical micellar concentration by surface tension; assay type: physicochemical; settings: […] NaCl water solution
Experimental: The critical micellar concentration (CMC) was determined by surface tension (ST) measurements using a maximum bubble-pressure method which give surface tension values […] by potential impurities like static methods are. The tensiometer was a […] Research Corp., Milwaukee, Wis.) equipped with two glass probes of 0.5 and 4.0 mm diameters connected to a source of nitrogen. […] The surface tension values were plotted against the logarithm of the bile salt concentration; the regression lines corresponding to the two parts of the curve (monomeric and micellar phases) were calculated using the method of least squares, and the intersection of the lines was taken as the CMC value. From the ST vs concentration curves the value of the surface tension at the CMC (equilibrium between monomers and multimers species) was also calculated giving information about the detergency power which is related to the size of the micelles with associate surface tension lowering capacity. The CMC was evaluated by surface tension measurements in non equilibrium conditions i.e. in conditions that impurities slightly affect the surface tension results (FIG. 10).

TGR5 = molecular target: T4, TGR5 (Homo sapiens, UniProt Q8TDU6); experiment: TGR5 receptor in vitro assay (Table 1); assay type: cell-based
T4 sequence (Q8TDU6 1-330): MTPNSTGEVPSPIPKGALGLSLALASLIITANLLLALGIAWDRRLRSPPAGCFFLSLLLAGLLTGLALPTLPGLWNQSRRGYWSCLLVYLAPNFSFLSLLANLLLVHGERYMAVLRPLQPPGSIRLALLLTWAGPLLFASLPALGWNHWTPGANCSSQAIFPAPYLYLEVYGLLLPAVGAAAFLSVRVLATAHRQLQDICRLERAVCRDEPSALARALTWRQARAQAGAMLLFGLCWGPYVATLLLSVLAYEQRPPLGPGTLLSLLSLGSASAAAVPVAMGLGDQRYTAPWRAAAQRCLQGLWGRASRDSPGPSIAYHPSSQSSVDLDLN

[4] = Biliary secretion and metabolism in bile fistula rat, id and iv infusion; settings: rat, bile, 1 μmol/kg/min
[5] = Octanol/water partition coefficient (shake-flask); assay type: physicochemical; settings: pH 8
VDR = molecular target: T5, VDR (Homo sapiens, UniProt P11473); experiment: VDR coactivator recruitment assay
T5 sequence (P11473 127-423 limits assumed): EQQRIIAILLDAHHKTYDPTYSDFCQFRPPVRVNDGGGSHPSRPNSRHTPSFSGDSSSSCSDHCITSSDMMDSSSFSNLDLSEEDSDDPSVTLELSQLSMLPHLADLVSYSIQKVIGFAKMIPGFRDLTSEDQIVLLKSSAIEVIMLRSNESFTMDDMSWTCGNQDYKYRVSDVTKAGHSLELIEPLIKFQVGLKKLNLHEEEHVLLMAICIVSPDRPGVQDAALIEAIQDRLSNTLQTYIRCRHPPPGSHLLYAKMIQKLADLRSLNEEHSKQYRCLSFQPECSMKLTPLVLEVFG

bovine serum albumin [6] = molecular target: T6, bovine serum albumin (Bos taurus, UniProt P02769); experiment: Albumin binding by equilibrium dialysis; assay type: in vitro ADME; settings: 100 μM BA in 5% bovine serum albumin-saline, pH 7.2
Experimental: The extent of albumin binding was evaluated by equilibrium dialysis at a fixed BA-albumin ratio. BA was dissolved at a concentration of 100 μM in 5% bovine serum albumin-saline solution (pH 7.2) and left to stand for 24 h at 25° C. Two milliliters of this solution was dialyzed in cellulose sacs having a molecular weight cut-off of 12-14,000 against 25 ml of saline solution. The system was equilibrated by mechanical gently shaking for 72 h at 25° C. BA concentrations of the dialyzed solution (corresponding to the free unbound fraction) and of the starting solution were determined with HPLC-ESI-MS/MS in the same conditions of the previous analysis.
The percent of albumin binding was calculate from the initial BA concentration and from the unbound concentration in the dialyzed fraction.

HepG2 cells [7] = experiment: cells; settings: Homo sapiens, HepG2, 4 h, read-out: NECROSIS LDH release EC50
PPARδ = molecular target: T7, PPARδ (Homo sapiens, UniProt Q03181); experiment: PPARδ coactivator recruitment assay
T7 sequence (Q03181 211-439 limits assumed): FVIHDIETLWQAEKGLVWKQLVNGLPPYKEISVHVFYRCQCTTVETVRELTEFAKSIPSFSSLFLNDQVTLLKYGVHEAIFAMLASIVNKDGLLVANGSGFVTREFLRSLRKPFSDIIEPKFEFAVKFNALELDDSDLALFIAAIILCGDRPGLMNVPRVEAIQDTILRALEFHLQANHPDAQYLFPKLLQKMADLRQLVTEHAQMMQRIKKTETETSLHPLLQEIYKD

HepG2 cells [8] = experiment: cells; settings: Homo sapiens, HepG2, 4 h, read-out: APOPTOSIS Caspase-3 activation EC50
bovine serum albumin [9] = molecular target: T6, bovine serum albumin; settings: values from literature; cited from earlier work
[10] = values from literature; cited from earlier work
[11] = values from literature; cited from earlier work; remark: listed apart in the source
[12] = values from literature; cited from earlier work; remark: listed apart in the source
in vitro [13] = settings: human, HepG2 cells
Water solubility = settings: 0.1 M HCl
HepG2 cells [14] = experiment: HepG2 cytotoxicity (ATP decrease); settings: read-out: CYTOTOXICITY ATP decrease EC50; 4 h
wild-type mice = experiment: Locomotor activity of wild-type mice given Ex-4; assay type: in vivo, mouse
From the text: To further evaluate the metabolic role of enhanced TGR5 signaling, we assessed the impact of transgenic overexpression of TGR5 in vivo in the context of DIO in mice. TGR5 transgenic mice (TGR5-Tg) were generated by oocyte injection of the bacterial artificial chromosome (BAC) RP23-278N1. […] The absence of weight gain in TGR5-Tg mice, in the wake of an increase in energy expenditure, was explained by a reduction of locomotor activity. Since GLP-1 receptor knockout mice display a marked hyperactivity (Hansotia et al., 2007, J. Clin. Invest. 117, 143-152), we administered the GLP-1 receptor agonist Ex-4 to wild-type mice in order to assess whether the decrease in locomotor activity in TGR5-Tg mice could be linked to GLP-1 secretion.

T6 sequence (P02769 25-607): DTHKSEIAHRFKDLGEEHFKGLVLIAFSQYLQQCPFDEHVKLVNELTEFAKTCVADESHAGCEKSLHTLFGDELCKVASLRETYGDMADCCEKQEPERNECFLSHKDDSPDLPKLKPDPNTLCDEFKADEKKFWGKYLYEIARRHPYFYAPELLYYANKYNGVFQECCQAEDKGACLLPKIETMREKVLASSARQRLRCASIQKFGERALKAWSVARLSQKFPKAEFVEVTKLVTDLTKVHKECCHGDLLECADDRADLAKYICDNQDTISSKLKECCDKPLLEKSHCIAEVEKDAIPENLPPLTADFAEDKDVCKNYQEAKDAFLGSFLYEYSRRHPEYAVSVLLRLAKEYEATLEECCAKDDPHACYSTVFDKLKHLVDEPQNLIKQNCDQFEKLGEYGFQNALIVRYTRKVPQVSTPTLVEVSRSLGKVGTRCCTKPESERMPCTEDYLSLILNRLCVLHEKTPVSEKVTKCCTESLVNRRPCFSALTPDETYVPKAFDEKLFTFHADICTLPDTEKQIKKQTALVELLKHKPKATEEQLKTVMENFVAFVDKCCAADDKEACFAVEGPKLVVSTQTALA

half-life (in vitro [1]): 8.5 min
Compound: O=c1ccc2ccc(O)cc2o1 [7-Hydroxy Coumarine, reference compound]

Compound: C[C@H](CCC(=O)O)[C@H]1CC[C@H]2[C@@H]3[C@H](O)C[C@@H]4C[C@H](O)CC[C@]4(C)[C@H]3C[C@H](O)[C@]12C [CA, cholic acid]
FXR Activation EC50 (FXR): No activity
LXRα Activation EC50 (LXRα): No activity
prevention and treatment of metabolic syndrome (diet-induced obese mice): efficiently prevents and treats metabolic syndrome
SV0: maximum bile secretion rate ([2]; id infusion): 64 ± 6 (μL/min)/kg bw
SV0: maximum bile secretion rate ([2]; iv infusion): (78 ± 8) (μL/min)/kg bw

Compound: C[C@H](CCC(=O)O)[C@H]1CC[C@H]2[C@@H]3[C@H](O)C[C@@H]4C[C@H](O)CC[C@]4(C)[C@H]3CC[C@]12C [CDCA, ChenoDeoxyCholicAcid]
EC50 (CAR): > 250 µM
metabolism (7-dehydroxylation) to lithocholic acid (intestinal bacteria): almost completely metabolized
half-life time (intestinal bacteria; human): almost one hour
CMC […] Na+ [3]: 3.2 mM
STCMC (surface tension at CMC) [3]: 45.5 Dyne/cm
TGR5 Data Efficacy (TGR5): 100%
fraction unbound at 4 h ([4]; iv): 0.04
fraction unbound at 4 h ([4]; other: duodenal infusion (id)): 0.03 ± 0.01
LogPA- (1-octanol-water partition coefficient, ionized species) [5]: 2.2
VDR Activation EC50 (VDR): No activity
LXRα Activation EC50 (LXRα): No activity
Albumin Binding (bovine serum albumin [6]): 93%
EC50 (HepG2 cells [7]): > 1000 µM
PPARδ Activation EC50 (PPARδ): No activity
maximum bile flow rate ([2]; duodenal infusion 1 μmol/kg/min, 1 hour): ≤ 4.8 mL/h/kg
SV0: maximum bile secretion rate ([2]; id infusion): 57 ± 7 (μL/min)/kg bw
SV0: maximum bile secretion rate ([2]; iv infusion): (51 ± 9) (μL/min)/kg bw
EC50 (HepG2 cells [8]): 890 µM

Compound: C[C@H](CCC(=O)O)[C@H]1CCC2C3C(CC[C@@]21C)[C@@]1(C)CC[C@@H](O)CC1[C@@H](C)[C@@H]3O (some centres unmarked) [Compound 6MUDCA]
Albumin Binding (bovine serum albumin [9]): 80* %
LogPA- (1-octanol-water partition coefficient, ionized species) [10]: 1.3*
CMC […] Na+ [11]: 4.2* mM
Ws (water solubility, protonated species) [12]: 28* μM

Compound: C[C@H](CCC(=O)O)[C@H]1CC[C@H]2[C@@H]3CC[C@@H]4C[C@H](O)CC[C@]4(C)[C@H]3CC[C@]12C [LCA, lithocholic acid]
CAR Activation EC50 (CAR): No activity
FXR Activation EC50 (FXR): No activity
VDR Activation EC50 (VDR): No activity
LXRα Activation EC50 (LXRα): No activity
EC50 (HepG2 cells [7]): 105 µM
EC50 at 4 h (in vitro [13]): 84 µM
PPARδ Activation EC50 (PPARδ): No activity
EC50 (HepG2 cells [8]): 65 µM

Compound: C[C@H](CCC(=O)O)[C@H]1CC[C@H]2[C@@H]3[C@@H](O)C[C@@H]4C[C@H](O)CC[C@]4(C)[C@H]3CC[C@]12C [UDCA]
EC50 (CAR): > 250 µM
CMC […] Na+ [3]: 6.0 mM
STCMC (surface tension at CMC) [3]: 50.5 Dyne/cm
Ws (water solubility, protonated species) (Water solubility): 7.5 µM
EC50 (HepG2 cells [14]): > 1000 µM
LogPA- (1-octanol-water partition coefficient, ionized species) [5]: 2.2
VDR Activation EC50 (VDR): No activity
LXRα Activation EC50 (LXRα): No activity
Albumin Binding (bovine serum albumin [6]): 94%
PPARδ Activation EC50 (PPARδ): No activity

Compound: Ex-4: the GLP-1 receptor agonist Ex-4
locomotor activity (wild-type mice): efficiently and dose-dependently reduced locomotor activity
